Reference: patent publication US6946458B2, “N-thiolated beta-lactams: novel antibacterial agents for methicillin-resistant Staphylococcus aureus” (University of South Florida, priority 1999, dated 2005)

Tests used:
[1] = tested on: MRSA USF652; assay: Kirby-Bauer agar disk diffusion; type: cell-based, Staphylococcus aureus; details: 6-mm disks, 20 μg test compound
Protocol: (§1) In this study, a selection of N-methylthio-substituted β-lactams are examined for antimicrobial activity by the Kirby-Bauer disk diffusion method on agar plates. A variety of common Gram-positive and Gram-negative bacteria are tested, including clinical isolates of methicillin-resistant Staphylococcus aureus (MRSA).
(§2) Compound susceptibility measurements are obtained from agar disk diffusion experiments using 6-mm air-dried disks impregnated with 20 μg of the test compound. The values correspond to the average diameters in mm (triplicate experiments) for the zone of growth inhibition observed after 24 h. Staphylococcus aureus (ATCC 25923) and β-lactamase-producing strains of methicillin-resistant Staphylococcus aureus (labeled as MRSA USF652-659) are obtained from Lakeland Regional Medical Center, Lakeland, Fla. Staphylococcus epidermidis, Staphylococcus simulans, Staphylococcus simulans, and Microcossus luteus are clinical isolates from University of South Florida Medical Clinic. Nieserria gonnorhoeae (β-lactamase positive) is obtained from the Tampa Branch State Laboratory. PenG is penicillin G (potassium salt). Table 1 provides the zones of growth inhibition that are observed after 24 hours using the lactams of FIGS. 1A-1I (designated A-I, respectively).
(§3) Of particular interest is the ability of these compounds to retain their effectiveness against penicillin-resistant strains of Staphylococcus aureus, a dangerous hospital-borne pathogen which is becoming difficult to treat with conventional antibiotic therapy. The lactams were screened for antibacterial activity by disk diffusion on agar plates, and the resulting zones of bacterial growth inhibition measured (see Table 3; each lactam is designated by Figure number).
(§4) Table 3: Growth inhibition zones obtained from agar disk diffusion experiments using 6-mm air-dried disks impregnated with 20 μg of the test compound. The values correspond to the average diameters in mm for the zone of growth inhibition observed after 24 hours. Staphylococcus aureus and β-lactamase-producing strains of methicillin-resistant Staphylococcus aureus (labeled MRSA USF652-659) are obtained from a clinical testing laboratory at Lakeland Regional Medical Center, Lakeland, Fla.
(§5) Those compounds were tested for bioactivity using the Kirby-Bauer test on agar plates.
(§6) Biological activity is enhanced against β-lactamase producing strains of methicillin-resistant Staphylococcus aureus (MRSA). With the lactam shown in FIG. 11A serving as a lead structure, a series of other C-4 substituted derivatives (FIGS. 11B-11I) were investigated herein. Table 5 lists microbiological data for β-lactams from Kirby-Bauer Disc Diffusion Test Results (with each lactam identified by Figure number).
(§7) Scheme I summarizes the synthesis of ester compounds 4. 4-Carboxy benzaldehyde (1) is coupled with the appropriate alcohol using DCC/DMAP, followed by reaction with p-anisidine, to give imines 2. Staudinger coupling of methoxyacetyl chloride with imine 2 gives N-aryl protected β-lactam 3. N-Dearylation of β-lactam 3 with ceric ammonium nitrate and methylthiolation with N-(methylthio)phthalimide affords N-methylthio β-lactams 4. These compounds are tested for antibacterial activity by the Kirby-Bauer method of disc diffusion on agar plates. [drawing 7]

[2] = tested on: MRSA USF653; assay: Kirby-Bauer agar disk diffusion; type: cell-based, Staphylococcus aureus; details: 6-mm disks, 20 μg test compound
Protocol: as §1, §2, §3, §4, §5, §6, §7

[3] = tested on: MRSA USF654; assay: Kirby-Bauer agar disk diffusion; type: cell-based, Staphylococcus aureus; details: 6-mm disks, 20 μg test compound
Protocol: as §1, §2, §3, §4, §5, §6, §7

[4] = tested on: MRSA USF655; assay: Kirby-Bauer agar disk diffusion; type: cell-based, Staphylococcus aureus; details: 6-mm disks, 20 μg test compound
Protocol: as §1, §2, §3, §4, §5, §6, §7

[5] = tested on: MRSA USF656; assay: Kirby-Bauer agar disk diffusion; type: cell-based, Staphylococcus aureus; details: 6-mm disks, 20 μg test compound
Protocol: as §1, §2, §3, §4, §5, §6, §7

[6] = tested on: MRSA USF657; assay: Kirby-Bauer agar disk diffusion; type: cell-based, Staphylococcus aureus; details: 6-mm disks, 20 μg test compound
Protocol: as §1, §2, §3, §4, §5, §6, §7

[7] = tested on: MRSA USF658; assay: Kirby-Bauer agar disk diffusion; type: cell-based, Staphylococcus aureus; details: 6-mm disks, 20 μg test compound
Protocol: as §1, §2, §3, §4, §5, §6, §7

[8] = tested on: MRSA USF659; assay: Kirby-Bauer agar disk diffusion; type: cell-based, Staphylococcus aureus; details: 6-mm disks, 20 μg test compound
Protocol: as §1, §2, §3, §4, §5, §6, §7

[9] = tested on: Micrococcus luteus; assay: Kirby-Bauer agar disk diffusion; type: cell-based; details: 6-mm disks, 20 μg test compound
Protocol: as §1, §2, §3, §4

[10] = tested on: Staphylococcus aureus (ATCC 25923); assay: Kirby-Bauer agar disk diffusion; type: cell-based; details: 6-mm disks, 20 μg test compound
Protocol: as §1, §2, §3, §4

[11] = tested on: Staphylococcus epidermidis; assay: Kirby-Bauer agar disk diffusion; type: cell-based; details: 6-mm disks, 20 μg test compound
Protocol: as §1, §2, §3, §4

[12] = tested on: S. simulans (ATCC 11631); assay: Kirby-Bauer agar disk diffusion; type: cell-based, Staphylococcus simulans; details: 6-mm disks, 20 μg test compound
Protocol: as §1, §2, §3, §4

[13] = tested on: S. saprophyticus (ATCC 3552); assay: Kirby-Bauer agar disk diffusion; type: cell-based, Staphylococcus saprophyticus; details: 6-mm disks, 20 μg test compound
Protocol: as §1, §2, §3, §4

[14] = tested on: N. gonorrhoeae; assay: Kirby-Bauer agar disk diffusion; type: cell-based, Neisseria gonorrhoeae; details: Table 1; 6-mm disks, 20 μg test compound, 24 h, triplicate; β-lactamase positive
Protocol: as §1, §2

[15] = tested on: Staphylococcus strains including MRSA; assay: antibacterial activity screening, results stated in words; type: cell-based, Staphylococcus aureus; details: Example 2; all microorganisms tested
From the text: However, the N-alkylthio substituent is required, since reduction to the N—H analogue completely destroys the biological activity. […]
as §3
With the lactam of FIG. 6A serving as a lead structure, other C4-unsaturated derivatives (FIGS. 6B-6E) and C4-saturated analogues (FIGS. 6F-6H), were examined all of which also have activity against Staphylococcus strains including MRSA.
as §7

SMILES | zone of growth inhibition, average diameter ([1]; Table 1, 24 h, triplicate) | zone of growth inhibition, average diameter ([2]; Table 1, 24 h, triplicate) | zone of growth inhibition, average diameter ([3]; Table 1, 24 h, triplicate) | zone of growth inhibition, average diameter ([4]; Table 1, 24 h, triplicate) | zone of growth inhibition, average diameter ([5]; Table 1, 24 h, triplicate) | zone of growth inhibition, average diameter ([6]; Table 1, 24 h, triplicate) | zone of growth inhibition, average diameter ([7]; Table 1, 24 h, triplicate) | zone of growth inhibition, average diameter ([8]; Table 1, 24 h, triplicate) | zone of growth inhibition, average diameter ([9]; Table 1, 24 h, triplicate) | zone of growth inhibition, average diameter ([10]; Table 1, 24 h, triplicate) | zone of growth inhibition, average diameter ([11]; Table 1, 24 h, triplicate) | zone of growth inhibition, average diameter ([12]; Table 1, 24 h, triplicate) | zone of growth inhibition, average diameter ([13]; Table 1, 24 h, triplicate) | zone of growth inhibition, average diameter [14] | other results
COC1C(=O)N(SC)C1C#Cc1ccccc1 (racemic) [Lactam A] | 31 mm | 30 mm | 28 mm | 29 mm | 30 mm | 30 mm | 27 mm | 25 mm | 23 mm | 27 mm | 30 mm | 21 mm | 22 mm | 13 mm | –
COC(=O)c1ccc(C2C(OC)C(=O)N2SC)cc1 (racemic) [Lactam F] | 12 mm | 14 mm | 12 mm | 14 mm | 11 mm | 12 mm | 12 mm | 13 mm | 20 mm | 12 mm | 12 mm | 0 mm | 8 mm | 11 mm | –
COC1C(=O)N2SC(c3ccccc3)=C(I)C12 (stereo not drawn) [FIG. 2D] | – | – | – | – | – | – | – | – | – | – | – | – | – | – | zone of growth inhibition, average diameter ([1]; Table 3, 24 hours): 0 mm; zone of growth inhibition, average diameter ([2]; Table 3, 24 hours): 0 mm; zone of growth inhibition, average diameter ([3]; Table 3, 24 hours): 0 mm; zone of growth inhibition, average diameter ([4]; Table 3, 24 hours): 0 mm; zone of growth inhibition, average diameter ([5]; Table 3, 24 hours): 0 mm; zone of growth inhibition, average diameter ([6]; Table 3, 24 hours): 0 mm; zone of growth inhibition, average diameter ([7]; Table 3, 24 hours): 0 mm; zone of growth inhibition, average diameter ([8]; Table 3, 24 hours): 0 mm; zone of growth inhibition, average diameter ([9]; Table 3, 24 hours): 0 mm; zone of growth inhibition, average diameter ([10]; Table 3, 24 hours): 0 mm; zone of growth inhibition, average diameter ([11]; Table 3, 24 hours): 0 mm; zone of growth inhibition, average diameter ([12]; Table 3, 24 hours): 0 mm; zone of growth inhibition, average diameter ([13]; Table 3, 24 hours): 0 mm; antimicrobial activity, in words [15]: no antimicrobial activity
COC1C(=O)N(SC)C1C(C#Cc1ccccc1)OC(C)=O (mixture of isomers) [FIG. 3H] | – | – | – | – | – | – | – | – | – | – | – | – | – | – | zone of growth inhibition, average diameter ([1]; Table 3, 24 hours): 0 mm; zone of growth inhibition, average diameter ([2]; Table 3, 24 hours): 0 mm; zone of growth inhibition, average diameter ([3]; Table 3, 24 hours): 0 mm; zone of growth inhibition, average diameter ([4]; Table 3, 24 hours): 0 mm; zone of growth inhibition, average diameter ([5]; Table 3, 24 hours): 0 mm; zone of growth inhibition, average diameter ([6]; Table 3, 24 hours): 0 mm; zone of growth inhibition, average diameter ([7]; Table 3, 24 hours): 0 mm; zone of growth inhibition, average diameter ([8]; Table 3, 24 hours): 0 mm; zone of growth inhibition, average diameter ([9]; Table 3, 24 hours): 0 mm; zone of growth inhibition, average diameter ([10]; Table 3, 24 hours): 0 mm; zone of growth inhibition, average diameter ([11]; Table 3, 24 hours): 0 mm; zone of growth inhibition, average diameter ([12]; Table 3, 24 hours): 0 mm; zone of growth inhibition, average diameter ([13]; Table 3, 24 hours): 0 mm; antimicrobial activity, in words [15]: inactive
COC1C(=O)N(SC)C1c1ccccc1C (racemic) [Lactam H] | 23 mm | 27 mm | 23 mm | 23 mm | 25 mm | 23 mm | 22 mm | 20 mm | 21 mm | 23 mm | 25 mm | 14 mm | 15 mm | 12 mm | –
COC1C(=O)N(SC)C1c1cccc([N+](=O)[O-])c1 (racemic) [Lactam E] | 17 mm | 22 mm | 16 mm | 14 mm | 18 mm | 18 mm | 17 mm | 11 mm | 22 mm | 15 mm | 20 mm | 13 mm | 15 mm | 12 mm | –
COC1C(=O)N(SC)C1C=Cc1ccccc1 (racemic) [Lactam B] | 19 mm | 23 mm | 16 mm | 17 mm | 19 mm | 17 mm | 16 mm | 15 mm | 20 mm | 18 mm | 23 mm | 11 mm | 12 mm | 11 mm | –
COC1C(=O)N(SC)C1c1cccs1 (racemic) [Lactam I] | 28 mm | 28 mm | 27 mm | 29 mm | 28 mm | 26 mm | 26 mm | 24 mm | 15 mm | 27 mm | 28 mm | 0 mm | 20 mm | 11 mm | –
COC1C(=O)N(SC)C1c1ccccc1 (racemic) [Lactam C] | 30 mm | 30 mm | 26 mm | 25 mm | 28 mm | 27 mm | 26 mm | 24 mm | 21 mm | 25 mm | 31 mm | 14 mm | 22 mm | 14 mm | –
